Reference: patent publication US20240000769A1, “AMORPHOUS SOLID DISPERSIONS” (UCB Biopharma SRL, priority 2020, published 2024)
In brackets after ≈: the same amount, converted by molar mass. Read-outs that look alike come from different tables or passages of the source.

Experiments:
[1] = Shake flask solubility (24 h) in buffer/biorelevant media; type: physicochemical; conditions: thermodynamic from solid, n=3, read-out: Solubility Measurements (24 h)
Protocol: The respective solubility of compounds of formula (Ia) and ASD1 was determined in different media while using the shake flask method. An excess of solid (equivalent to a concentration of compound of formula (I) of 5 mg/mL) was suspended in 5 mL of buffer/biorelevant media as specifically described in Table 4 and incubated in a sealed glass vial (10 mL) for 24 h at both RT and 37° C. in a climatic chamber equipped with a rotary mixer. The 24h time point was assumed to have reached solubility, at which time the suspension was filtered through a 0.45-μm ultra free filter (Merck Millipore) and the drug content was determined by HPLC. The solubility of compound (Ia) and ASD1 was determined in triplicate (n=3). Where required to prevent drug precipitation, the filtrate was diluted with a suitable organic solvent. […] These media are respectively a phosphate buffer, FasSGF, FASSIF-V2 and FeSSIF-V2. FasSG is fasted condition gastric fluid. FasSGF is prepared at pH 1.6 and contains 0.08 mM Taurocholate, 0.02 mM phospholipids, 34 mM sodium and 59 mM chloride. FaSSIF-V2 and FeSSIF-V2 are Fasted and Fed State Biorelevant Media, respectively. FaSSIF-V2 is prepared at pH 6.5 and contains 3 mM Taurocholate, 0.2 mM Phospholipids, 106 mM Sodium, 69 mM Chloride and 19 mM Maleic acid. FeSSIF-V2 is prepared at pH 5.8 and contains 10 mM Taurocholate, 2 mM Phospholipids, 0.8 mM Oleate, 5 mM Glycerol monoleate, 218 mM Sodium, 125 mM Chloride and 55 mM Maleic acid.

[2] = Dynamic dissolution profile, USP Apparatus 2, simulated gastric media then FaSSIF-V2; type: physicochemical; conditions: 37° C., 30 min 0.1N HCl (1 mg/mL) then 180 min FaSSIF-V2 (0.5 mg/mL)
Protocol: The dissolution profile was determined in a USP Apparatus 2 type (Distek 2100 C Dissolution Apparatus) at 37° C. The dynamic dissolution test includes first a 30 minutes dissolution in simulated gastric media (0.1N HCl) to achieve a concentration equivalent to a concentration of compound of formula (I) of 1 mg/mL, followed by a 180 minutes dissolution in FaSSIF-V2 to achieve a concentration equivalent to a concentration of compound of formula (I) of 0.5 mg/mL.
Then, 50 mL of simulated gastric media (0.1N HCl) was added to the vessel and the paddle speed was fixed at 100 rpm. After 30 minutes, an equivalent volume (50 mL) of fasted state biorelevant media was added to the vessel to obtain the composition of FaSSIF-V2. Dissolution was carried out in triplicate (n=3). At each timepoint, the suspension was filtered through a 0.45-μm ultra free filter (Merck Millipore) and the content of compound of formula (I) was determined by HPLC. The filtrate was then diluted with a suitable organic solvent.

## C[C@H]1c2cccc(C(C)(C)O)c2C[C@H](CO)N1C(=O)Cc1c(Cl)ccc2c1c(Cl)nn2C [Compound (Ia), 2-(3,5-dichloro-1-methyl-indazol-4-yl)-1-[(1S,3R)-3-(hydroxymethyl)-5-(1-hydroxy-1-methyl-ethyl)-1-methyl-3,4-dihydro-1H-isoquinolin-2-yl]ethanone]
[1]; aqueous buffer, Phosphate buffer (50 mM), pH 5.8, RT
  solubility at 24 h: < 1 µg/mL
[1]; aqueous buffer, Phosphate buffer (50 mM), pH 6.5, RT
  solubility at 24 h: < 1 µg/mL
[1]; fassgf or other biorelevant, FasSGF, pH 1.6, 37° C.
  solubility at 24 h: < 1 µg/mL
[1]; FaSSIF-V2, pH 6.5, 37° C.
  solubility at 24 h: ~1.5 µg/mL (≈ 3.15 µM)
[1]; FeSSIF-V2, pH 5.8, 37° C.
  solubility at 24 h: ~4 µg/mL (≈ 8.4 µM)
[2]
  dissolution profile over time: drops in gastric media to very low levels
